Laboratory results taken from patent publication US9187467B2, “2-phenyl benzothiazole linked imidazole compounds as potential anticancer agents and process for the preparation thereof” (Council of Scientific and Industrial Research, priority 2012, dated 2015).
Like-named read-outs stand apart in the source and are kept apart here.

Legend:
Assay type in all cases: cell-based, human
SK-OV-3 = assay: SRB anticancer assay, ovarian; conditions: Homo sapiens, SK-OV-3, 48 h
SF-539 = assay: SRB anticancer assay, CNS; set-up: Log10GI50: unit not given here
COLO 205 = assay: SRB anticancer assay, colon; conditions: Homo sapiens, COLO 205, 48 h
DU-145 = assay: SRB anticancer assay, prostate; set-up: Log10GI50: unit not given here
A549/ATCC = assay: SRB anticancer assay, non-small lung; set-up: Log10GI50: unit not given here
MDA-MB-231/ATCC = assay: SRB anticancer assay, breast; set-up: Log10GI50: unit not given here; conditions: for GI50: Homo sapiens, MDA-MB-231, 48 h, 48 h, read-out: GI50
SNB-19 = assay: SRB anticancer assay, CNS; set-up: Log10GI50: unit not given here
OVCAR-4 = assay: SRB anticancer assay, ovarian; conditions: Homo sapiens, OVCAR-4, 48 h
Renal cancer cell lines = assay: SRB anticancer assay, panel result
Method in brief: (§1)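 Tested across a sixty-line human cancer panel spanning nine tumour types. Dose–response curves used at least five concentrations in 10-fold dilution steps, with 48 h continuous drug exposure; cell growth/viability was estimated by sulforhodamine B protein staining.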

CNS cancer cell lines = assay: SRB anticancer assay, panel result
Method in brief: as §1

[1] = system: Prostate cancer cell lines; assay: SRB anticancer assay, panel result
Method in brief: as §1

Breast cancer cell lines = assay: SRB anticancer assay, panel result
Method in brief: as §1

[2] = system: Leukemia cancer cell lines; assay: SRB anticancer assay, panel result
Method in brief: as §1

[3] = system: Non-small cell lung cancer cell lines; assay: SRB anticancer assay, panel result
Method in brief: as §1

[4] = system: Ovarian cancer cell lines; assay: SRB anticancer assay, panel result
Method in brief: as §1

Colon cancer cell lines = assay: SRB anticancer assay, panel result
Method in brief: as §1

[5] = system: Melanoma cancer cell lines; assay: SRB anticancer assay, panel result
Method in brief: as §1

OVCAR-8 = assay: SRB anticancer assay, ovarian; set-up: Log10GI50: unit not given here
MDA-MB-468 = assay: SRB anticancer assay, breast; set-up: unit not given here; conditions: present compounds
UACC-257 = assay: SRB anticancer assay, melanoma
ACHN = assay: SRB anticancer assay, renal; set-up: Log10GI50: unit not given here
NCI/ADR-RES = assay: SRB anticancer assay, ovarian; set-up: Log10GI50: unit not given here; conditions: for Log10GI50: present compounds
KM12 = assay: SRB anticancer assay, colon; conditions: Homo sapiens, KM12, 48 h
NCI-H522 = assay: SRB anticancer assay, non-small lung; set-up: Log10GI50: unit not given here
HT29 = assay: SRB anticancer assay, colon; conditions: Homo sapiens, HT-29; HT29, 48 h
NCI-H226 = assay: SRB anticancer assay, non-small lung; conditions: Homo sapiens, NCI-H226, 48 h
U251 = assay: SRB anticancer assay, CNS; set-up: Log10GI50: unit not given here

## COc1ccc(-c2cncn2-c2ccc(-c3nc4cc(OC)c(OC)c(OC)c4s3)cc2)cc1N [Compound 7j, 2-Methoxy-5-(1-(4-(5,6,7-trimethoxybenzo[d]thiazol-2-yl)phenyl)-1H-imidazol-5-yl)benzeneamine]
SK-OV-3
  GI50: > 100 µM
SF-539; Homo sapiens, SF-539, 48 h
  GI50: > 100 µM
SF-539; SF-539, present compounds
  Log10GI50: >−4.0
COLO 205
  GI50: 2.94 µM
DU-145; DU-145, present compounds
  Log10GI50: −5.20
DU-145; Homo sapiens, DU-145, 48 h
  GI50: 6.38 µM
A549/ATCC; Homo sapiens, 48 h
  GI50: 5.77 µM
A549/ATCC; present compounds
  Log10GI50: −5.24
MDA-MB-231/ATCC; MDA-MB-231/ATCC (row head MDA-MB-)
  GI50: > 100 µM
MDA-MB-231/ATCC; row head printed 231/ATCC (second line of MDA-MB-231/ATCC)
  GI50: 28.3 µM
MDA-MB-231/ATCC; MDA-MB-231/ATCC, present compounds
  Log10GI50: >−4.0
SNB-19; Homo sapiens, SNB-19, 48 h
  GI50: > 100 µM
SNB-19; SNB-19, present compounds
  Log10GI50: >−4.0
OVCAR-4
  GI50: 6.29 µM
Renal cancer cell lines; Homo sapiens, Renal panel, 50% net cell death, read-out: mean graph midpoint value (MG_MID) of Log10 LC50 (converted)
  CC50: > 100 µM
Renal cancer cell lines; Homo sapiens, eight renal cancer cell lines, exposure at least 48 h, read-out: GI50, range over the panel
  GI50: 1.99 to 9.44 µM
Renal cancer cell lines; Renal panel
  mean graph midpoint value (MG_MID) of Log10 GI50: −5.31 log10(mol/L)
Renal cancer cell lines; Renal panel, total inhibition of net cell growth
  mean graph midpoint value (MG_MID) of log10 TGI: −4.14
CNS cancer cell lines; CNS panel
  mean graph midpoint value (MG_MID) of Log10 GI50: −4.53 mol/L
CNS cancer cell lines; CNS panel, total inhibition of net cell growth
  mean graph midpoint value (MG_MID) of log10 TGI: >−4.0
CNS cancer cell lines; Homo sapiens, CNS panel, 50% net cell death, read-out: mean graph midpoint value (MG_MID) of Log10 LC50 (converted)
  CC50: > 100 µM
CNS cancer cell lines; Homo sapiens, six CNS cancer cell lines, exposure at least 48 h, read-out: GI50, range over the panel
  GI50: 4.44 to 52.3 µM
[1]; Homo sapiens, Prostate panel, 50% net cell death, read-out: mean graph midpoint value (MG_MID) of Log10 LC50 (converted)
  LC50: > 100 µM
[1]; Homo sapiens, two prostate cancer cell lines (PC-3, DU-145), exposure at least 48 h, read-out: GI50, range over the panel
  GI50: 2.59 to 6.38 µM
[1]; Prostate panel
  mean graph midpoint value (MG_MID) of Log10 GI50: −5.39 mol/L
[1]; Prostate panel, total inhibition of net cell growth
  mean graph midpoint value (MG_MID) of log10 TGI: >−4.0
Breast cancer cell lines; Breast panel
  mean graph midpoint value (MG_MID) of Log10 GI50: −4.96 mol/L
Breast cancer cell lines; Breast panel, total inhibition of net cell growth
  mean graph midpoint value (MG_MID) of log10 TGI: >−4.0
Breast cancer cell lines; Homo sapiens, Breast panel, 50% net cell death, read-out: mean graph midpoint value (MG_MID) of Log10 LC50 (converted)
  CC50: > 100 µM
Breast cancer cell lines; Homo sapiens, six breast cancer cell lines, exposure at least 48 h, read-out: GI50, range over the panel
  GI50: 3.02 to 28.3 µM
[2]; Homo sapiens, Leukemia panel, 50% net cell death, read-out: mean graph midpoint value (MG_MID) of Log10 LC50 (converted)
  LC50: > 100 µM
[2]; Homo sapiens, six leukemia cancer cell lines, exposure at least 48 h, read-out: GI50, range over the panel
  GI50: 2.2 to 4 µM
[2]; Leukemia panel
  mean graph midpoint value (MG_MID) of Log10 GI50: −5.49 log10(mol/L)
[2]; Leukemia panel, total inhibition of net cell growth
  mean graph midpoint value (MG_MID) of log10 TGI: −4.20
[3]; Homo sapiens, Non-small cell lung panel, 50% net cell death, read-out: mean graph midpoint value (MG_MID) of Log10 LC50 (converted)
  LC50: > 100 µM
[3]; Homo sapiens, nine Non-small cell lung cancer cell lines, exposure at least 48 h, read-out: GI50, range over the panel
  GI50: 3.37 to 25.7 µM
[3]; Non-small cell lung panel
  mean graph midpoint value (MG_MID) of Log10 GI50: −5.18 log10(M)
[3]; Non-small cell lung panel, total inhibition of net cell growth
  mean graph midpoint value (MG_MID) of log10 TGI: −4.11
[4]; Homo sapiens, Ovarian panel, 50% net cell death, read-out: mean graph midpoint value (MG_MID) of Log10 LC50 (converted)
  LC50: > 100 µM
[4]; Homo sapiens, seven ovarian cancer cell lines, exposure at least 48 h, read-out: GI50, range over the panel
  GI50: 3.12 to 6.29 µM
[4]; Ovarian panel
  mean graph midpoint value (MG_MID) of Log10 GI50: −4.93 mol/L
[4]; Ovarian panel, total inhibition of net cell growth
  mean graph midpoint value (MG_MID) of log10 TGI: >−4.0
Colon cancer cell lines; Colon panel
  mean graph midpoint value (MG_MID) of Log10 GI50: −5.40 log10(mol/L)
Colon cancer cell lines; Colon panel, total inhibition of net cell growth
  mean graph midpoint value (MG_MID) of log10 TGI: −4.11
Colon cancer cell lines; Homo sapiens, Colon panel, 50% net cell death, read-out: mean graph midpoint value (MG_MID) of Log10 LC50 (converted)
  LC50: > 100 µM
Colon cancer cell lines; Homo sapiens, seven colon cancer cell lines, exposure at least 48 h, read-out: GI50, range over the panel
  GI50: 2.94 to 6.21 µM
[5]; Homo sapiens, Melanoma panel, 50% net cell death, read-out: mean graph midpoint value (MG_MID) of Log10 LC50 (converted)
  LC50: 81.3 µM
[5]; Homo sapiens, nine melanoma cancer cell lines, exposure at least 48 h, read-out: GI50, range over the panel
  GI50: 1.73 to 13.7 µM
[5]; Melanoma panel
  mean graph midpoint value (MG_MID) of Log10 GI50: −5.17 log10(mol/L)
[5]; Melanoma panel, total inhibition of net cell growth
  mean graph midpoint value (MG_MID) of log10 TGI: −4.26
OVCAR-8; Homo sapiens, OVCAR-8, 48 h
  GI50: 6.19 µM
OVCAR-8; OVCAR-8, present compounds
  Log10GI50: −5.21
MDA-MB-468
  Log10GI50: −5.07
UACC-257; Homo sapiens, UACC-257, 48 h
  GI50: > 100 µM
UACC-257; UACC-257, present compounds
  Log10GI50: >−4.0 log10(M)
ACHN; Homo sapiens, 48 h
  GI50: 5.59 µM
ACHN; present compounds
  Log10GI50: −5.25
NCI/ADR-RES; Homo sapiens, NCI/ADR-RES, 48 h
  GI50: 3.12 µM
NCI/ADR-RES; NCI/ADR-RES (row head NCI/ADR-)
  Log10GI50: −5.51
NCI/ADR-RES; listed as head printed RES (second line of NCI/ADR-RES)
  Log10GI50: >−4.0
KM12
  GI50: 3.8 µM
NCI-H522; Homo sapiens, NCI-H522, 48 h
  GI50: 3.37 µM
NCI-H522; NCI-H522, present compounds
  Log10GI50: −5.47
HT29
  GI50: 3.87 µM
NCI-H226
  GI50: 6.7 µM
U251; Homo sapiens, U-251, U251, 48 h
  GI50: 6 µM
U251; U251, present compounds
  Log10GI50: −5.22
